Entries after “also recorded” stand apart in the source; their conditions may differ.
Assays:
[1] = test system: PKC binding to recombinant RACK1; assay: Overlay / overlay-extraction assay: inhibition of PKC binding to recombinant RACK1 by peptides; set-up: species or system rat; details: 10 μM peptide preincubated with PKC
Procedure: The variation in the overlay protocol consisted of incubating the putative binding peptides with a mixture of PKC isozymes for 15 minutes at room temperature before the mixture was used to contact the nitrocellulose strips containing immobilized RACK1.
Nitrocellulose strips containing immobilized RACK1, that had been contacted with a solution containing a mixture of PKC isozymes, were washed and the area corresponding to the 36 kDa (RACK1-containing) band was cut out. The pieces (containing PKC/RACK1 complexes) were incubated with sample buffer for 10 minutes at 80° C. The sample buffer and the nitrocellulose pieces were then placed in wells in the PAGE gel and subjected to SDS-PAGE to elute the bound proteins. The gel was blotted onto nitrocellulose and a Western blot analysis was carried out using the mixture of antibodies (specific for PKC α, β, γ, δ, ε and ζ isozymes) described in Example 1 part B. Bound antibodies were detected by ^125I-protein A.
Peptides derived from or homologous to WD-40 repeats of RACK1 were tested for their ability to inhibit PKC binding to recombinant RACK1. Binding of PKC to RACK1 was carried out using a variation of the overlay procedure described in Example 3 part B. In the experimental samples, peptides were incubated with a solution containing a mixture of rat brain PKC isozymes (˜10 nM each) for 15 minutes at room temperature.
Following completion of the modified overlay protocol, the samples were subjected to the overlay-extraction protocol detailed in part B, above.
The results in FIG. 3 show the binding of PKC to RACK1, carried out without (lane 1) or with (lanes 2-4) a preincubation of peptides with PKC. […] Peptide I caused an 81±6% inhibition of PKC binding to recombinant RACK1 as compared with binding in the absence of added peptide (n=3). Lanes 3 and 4 show PKC binding following a preincubation with 10 μM peptide rIII (SEQ ID NO:4) and 10 μM peptide rVI (SEQ ID NO:7), respectively. […] The results shown are representative of three independent experiments.

Xenopus oocytes = assay: PKC-mediated Xenopus oocyte maturation (germinal vesicle breakdown, GVBD) after peptide microinjection; format: cell-based; details: for plateau % GVBD (fraction of oocytes reaching maturation) following insulin exposure: peptide 50 μM, 50 nl microinjected, 20 h time course
Procedure: Exposure to insulin induces maturation in Xenopus oocytes via a PKC-dependent pathway (Smith, et al., 1992). The maturation response may be quantified by monitoring the appearance of a white spot in the animal hemisphere of the oocyte, indicating germinal vesicle breakdown (GVBD) and maturation. To assess the effects of RACK1 WD-40-derived peptides on insulin-induced PKC-mediated maturation, 50 nl of a 20 mM NaCl solution containing the indicated peptides [peptide I (SEQ ID NO:1; ●), peptide rVI (SEQ ID NO:7; ▪), or injection solution (□)] (peptides at 50 μM) were microinjected into Xenopus oocytes. […] One hour following the peptide injections, the oocytes were exposed to a solution containing insulin (8.25 μg/ml) for 2 minutes (t=0). 10-15 oocytes were used for each sample.
The data, representative of three independent experiments, are expressed as the percent of oocytes with GVBD following insulin exposure and are plotted as a function of time in FIG. 5.

PKC [2] = assay: PKC autophosphorylation; format: biochemical, rat; details: peptide 10 μM; absence of PKC activators
Procedure: Rat brain PKC (˜10 nM) was incubated with mild agitation in a final volume of 250 μl of overlay buffer, as in Example 1 either with anti-βPKC pseudosubstrate antibodies (1:10 dilution, Life Technologies, Gaithersburg, Md.) or with the indicated peptide (10 μM). Where indicated, PS (50 μg/ml), DG (0.8 μg/ml) and CaCl2 (1 mM) were also added. The amount of autophosphorylation was determined after 2 hours for the reaction with the anti-pseudosubstrate antibodies, or after 15 minutes for the other samples. 50 μl of a buffer comprised of 20 mM Tris-HCl (pH 7.5), 20 mM MgCl2, 20 μM ATP and 5 μci/ml [γ-^32P]ATP. The mixture was incubated for 15 minutes at room temperature and the reaction was stopped by adding 60 μl sample buffer (see Example 9). The samples were then boiled for 10 minutes, loaded onto a 10% SDS-PAGE mini gel and electrophoresed. The gel was fixed with 50% methanol and 10% acetic acid for 1 hour, and the autophosphorylation of PKC was determined by autoradiography.
The results in FIG. 8 show PKC autophosphorylation in the presence of DG, PS, and calcium (lane 1), in the presence of EGTA (lane 2), in the presence of anti-βPKC pseudosubstrate antibodies (diluted 1:10 in 20 mM Tris-HCl; lane 3), in the presence of peptide rVI (SEQ ID NO:7; 10 μM; lane 4), in the presence of peptide I (SEQ ID NO:1; 10 μM; lane 5), or in the presence of control peptide (SEQ ID NO:9; 10 μM; lane 6).

βPKC = target: T1, βPKC (Rattus norvegicus, UniProt P68403); assay: Sensitivity of βPKC to Arg-C endopeptidase (nicking); format: biochemical; details: low activators: 2.5 μg/ml PS and 50 μM CaCl2; peptide 10 μM
T1 construct: All the solutions contained 5 nM rat brain PKC; from tissue; host or cells: rat brain
T1 sequence (P68403 whole entry): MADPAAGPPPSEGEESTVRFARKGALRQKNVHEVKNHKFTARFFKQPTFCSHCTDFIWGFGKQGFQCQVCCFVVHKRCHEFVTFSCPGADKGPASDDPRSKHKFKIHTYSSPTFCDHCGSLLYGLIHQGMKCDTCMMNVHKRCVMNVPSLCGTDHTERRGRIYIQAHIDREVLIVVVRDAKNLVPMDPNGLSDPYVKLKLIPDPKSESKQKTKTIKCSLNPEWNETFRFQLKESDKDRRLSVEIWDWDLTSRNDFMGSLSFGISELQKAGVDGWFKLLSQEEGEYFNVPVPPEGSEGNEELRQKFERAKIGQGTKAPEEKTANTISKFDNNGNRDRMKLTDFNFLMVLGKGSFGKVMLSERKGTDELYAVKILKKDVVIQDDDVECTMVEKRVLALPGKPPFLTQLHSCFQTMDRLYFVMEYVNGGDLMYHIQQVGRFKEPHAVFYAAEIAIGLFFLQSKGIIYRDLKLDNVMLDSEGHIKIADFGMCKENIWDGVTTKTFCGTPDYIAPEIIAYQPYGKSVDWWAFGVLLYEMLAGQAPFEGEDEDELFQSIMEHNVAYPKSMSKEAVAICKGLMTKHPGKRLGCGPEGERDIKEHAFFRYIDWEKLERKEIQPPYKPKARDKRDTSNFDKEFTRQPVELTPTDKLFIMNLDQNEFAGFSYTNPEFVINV
From the text: Upon activation of PKC, a pseudosubstrate autoinhibitory sequence at the N-terminus of the molecule dissociates from the catalytic site and becomes sensitive to endopeptidase Arg-C (Orr, et al.). In the absence of PKC activators, exposure of the 80 kDa βPKC to endopeptidase Arg-C has no effect on the enzyme (see FIG. 7, lane 1). In the presence of the PKC activators PS, DG and calcium, however, exposure of βPKC to Arg-C results in a “nicking” of the PKC (i.e. limited proteolysis generating a 78 kDa fragment and several small fragments (see FIG. 7, lane 2)). Continued exposure to Arg-C results in the disappearance of βPKC (Orr, et al.). The present experiment tests whether peptides derived from the WD-40 region of RACK1 alter the sensitivity of βPKC to endopeptidase Arg-C.
The methods used to assay Arg-C sensitivity are a modification of methods described by Orr, et al. Rat brain PKC (˜5 nM) was incubated at room temperature in 500 μl of 20 mM Tris-HCl buffer (pH 7.5) alone or with Arg-C (5 units/ml) in the presence or absence of the indicated peptides (final concentration 10 μM or as indicated), PS, DG, and calcium (as indicated). 50 μl aliquots were removed into 20 μl of sample buffer during the reaction as indicated (samples in all the lanes were incubated for 30 minutes , except lanes 5, and 6, which were incubated for 5 and 15 minutes, respectively). The samples were boiled for 10 minutes at 80° C. and loaded onto 8% SDS-PAGE. βPKC was detected by Western blot analysis using anti-βPKC antibodies as described in Examples 6 and 8.
PKC was incubated for the indicated time alone (lane 1) or in the presence of Arg-C (lanes 2-9), with DG (0.8 μg/ml), PS (50 μg/ml) and CaCl2 (1 mM; lane 2), with PS (50 μg/ml) and CaCl2 (1 mM; lane 3), with PS (2.5 μg/ml) and CaCl2 (50 μM; lane 4); with PS (2.5 μg/ml), CaCl2 (50 μM) and with either peptide rVI (SEQ ID NO:7; 10 μM; lanes 5-7), control peptide (SEQ ID NO:9; lane 8) or with peptide I (SEQ ID NO:1; lane 9).

δ and εPKC isozymes = assay: PKC isozyme translocation and degradation in cardiac myocytes; format: cell-based, rat
Procedure: In cardiac myocytes, norepinephrine (NE, 2 μM) causes translocation of δ and εPKC isozymes from the cytosolic to the particulate fraction. […] This peptide-induced translocation was followed by degradation of δ and εPKC isozymes.

PKC [3] = assay: Histone type IIIs phosphorylation by PKC; format: biochemical; details: absence of PS, DG and calcium; peptide 10 μM
Procedure: Histone type IIIs (Sigma Chemical Company, St. Louis, Mo.) was phosphorylated by PKC (˜10 nM) in the absence (lane 1) and presence of peptide rVI (10 μM) (lanes 2 and 3) and in the presence and absence of DG (0.8 μg/ml), PS (50 μg/ml) and CaCl2 (1 mM) (lane 3). The results are expressed as percentage of control that is the amount of Histone phosphorylation by PKC in the presence of DG (0.8 μg/ml), PS (50 μg/ml) and CaCl2 (1 mM). The results are the average ± SEM of two independent experiments. PKC was first incubated with the peptide rVI (10 μM) for 15 minutes in overlay buffer as described above. Histone type IIIs (40 μg/ml) was added in Tris-HCl (20 mM), MgCl2 (20 mM), ATP (20 μM) and ([γ-^32P]ATP (5 μci/ml) with or without PS (50 μg/ml), DG (0.8 μg/ml) and CaCl2 (1 mM). Histone phosphorylation was determined by autoradiography as above.

[4] = peptide 50 μM microinjected, insulin 8.25 μg/ml
[5] = peptide introduced into cardiac myocytes

In the case of “peptide rI: synthetic peptide based on the corresponding region of RACK1 WD-40 repeat I (VTQIATT)”, the “inhibition of PKC binding to RACK1 (in words)” value (“inhibition of PKC binding” for short) [1] is reported as “effective inhibitors”.
“rIV: synthetic peptide based on the corresponding region of RACK1 WD-40 repeat IV (VSCVRFS)” was tested, and the “inhibition of PKC binding” value [1] was “lesser inhibitory effect”.
With “control peptide: control peptide (SEQ ID NO:9) (LKGKIL) [reference compound]” the “delay to onset of maturation after exposure to insulin” value (Xenopus oocytes; [4]) was 4 to 5 h, the “time to reach GVBD plateau after insulin exposure” value (Xenopus oocytes; [4]) was 10 to 12 h and the “plateau % GVBD (fraction of oocytes reaching maturation) following insulin exposure” value (Xenopus oocytes; insulin 8.25 μg/ml) was 85-90%. For the same substance, the “induction of PKC autophosphorylation (in words)” value (PKC [2]) was “No autophosphorylation; also recorded: Neither peptide I nor control peptide induced PKC autophosphorylation” and the “nicking of βPKC by Arg-C (78 kDa fragment)” value (βPKC) was “did not result in appreciable nicking activity; also recorded: did not occur”.
With “peptide rVII: synthetic peptide based on the corresponding region of RACK1 WD-40 repeat VII (PQCTSLA)” the “inhibition of PKC binding” value [1] was “no inhibition”.
For “peptide rV: synthetic peptide based on the corresponding region of RACK1 WD-40 repeat V (GYLNTVT)”, the “inhibition of PKC binding” value [1] was “lesser inhibitory effect”.
For “peptide rII: synthetic peptide based on the corresponding region of RACK1 WD-40 repeat II (FVSDVVI)”, the “inhibition of PKC binding” value [1] was “effective inhibitors”.
“peptide rIII: seven amino acid peptide identical to a segment of RACK1 WD-40 repeat III (DVLSVAF)” was tested, and the “inhibition of PKC binding” value [1] was “inhibit the binding of PKC to RACK1; also recorded: somewhat more effective than peptide rVI”, the “NE-induced translocation of δ and εPKC” value (δ and εPKC isozymes; norepinephrine 2 μM) was “further enhanced” and the “degradation of PKC isozymes” value (δ and εPKC isozymes; [5]) was “followed by degradation of these activated isozymes; also recorded: accelerated the degradation of PKC”. For the same substance, the “translocation / distribution of δ and εPKC isozymes in the absence of hormone stimulation” value (δ and εPKC isozymes; [5]) was “caused an immediate translocation”, the “effect on insulin-induced oocyte maturation (in words)” value (Xenopus oocytes; at 50 and 500 μM) was “enhances insulin-induced oocyte maturation” and the “plateau % GVBD (fraction of oocytes reaching maturation) following insulin exposure” value (Xenopus oocytes; insulin 8.25 μg/ml) was ~100%. The “effect on insulin-induced oocyte maturation (in words)” value (Xenopus oocytes; peptide microinjected, insulin) was “potentiated the effects of insulin on oocyte maturation”, the “induction of PKC-mediated histone phosphorylation” value (PKC [3]) was “similarly induced histone phosphorylation” and the “nicking of βPKC by Arg-C (78 kDa fragment)” value (βPKC) was “appearance of the 78 kDa nicked PKC fragment”.
